Where two headings read alike, the source gives them in different places.
Key:
CLso = type: cell-based, Candidatus Liberibacter solanacearum; conditions: 48 h treatment, CLso-potato hairy roots
Lso = type: cell-based, Candidatus Liberibacter solanacearum; conditions: 100 mg/L penicillin

What does the source list for `CC/C=C\CC1C(=O)CCC1CC(=O)OC` (stereo not shown) [methyl-JA, methyl jasmonate]?
relative CLso titers versus DMSO control (CLso; 10 uM): suppressed CLso; relative CLso titers versus DMSO control (CLso; 10 uM, listed as methyl-jasmonate): decreased CLso titers

For `O=C(O)c1ccccc1O` [salicylic acid], which “relative CLso titers versus DMSO control” value (CLso; 100 uM) is on record?
The value was “no significant effect”.

With penicillin as the compound, how does the “Lso titer versus Lso colonized hairy roots not exposed” value (Lso; 2 days of exposure) read?
Its value is “significantly lower titer of Lso”.

What about the “Lso titer versus Lso colonized hairy roots not exposed” value (Lso; 7 days of exposure) of the same compound?
Its value is “significantly lower titer of Lso”.

What about the “relative CLso titers versus DMSO control” value (CLso; 100 ppm) of the same compound?
The value was “significantly suppressed CLso titers”.

What about the “relative CLso titers versus DMSO control” value (CLso; 100 ppm, listed as Penicillin) of the same compound?
Its value is “decreased CLso titers”.
